Legend:
Test in all cases: Northern expression analysis after aphidicolin synchronisation of MM1 (maximum signal = 100%)
Format in all cases: cell-based, Arabidopsis thaliana
CDK-b2 = tested on: CDK-b2
Experimental: (§1) was analysed following the expression level of known cell cycle regulated genes. Synchronisation was performed as described in Example 2A, with the exception that two 7-day old cultures of the weekly sub-cultured cell suspension (210 ml each) were combined. 40 ml of combined culture was transferred into 200 ml of fresh MSS-medium in each of 10 separate flasks. After incubation for 24 hrs under conditions as described in Example 1, in the presence of 4.16 μg/ml aphidicolin, cells from 5 pooled flasks were washed through a nylon net (mesh size 47 μm) and washed with 2 litre MSS medium and shaken vigorously to remove the aphidicolin. Cells were transferred into a 50 ml plastic tube, washed again with MSS medium and centrifuged at 2500 rpm for 1 min (1075 rcf). Cells were resuspended and combined with the cells from the other 5 flasks similarly washed in a total volume of 300 ml fresh MSS-medium. 30 ml of this cell suspension was then added to 200 ml fresh MSS-medium in each of 10 separate flasks.
(§2) 1) 25 ml for Northern blot (transferred into 50 ml plastic tube, centrifuged at 2500 rpm for 1 min, the supernatant discarded, and the cell pellet shock-frozen in liquid nitrogen before storing in −80° C. freezer)
(§3) Samples were collected at the time point indicated (time of removal of aphidicolin equals time point 0 hrs) and were analysed for expression of the following genes by Northern blot:
(§4) For each probe the maximum hybridisation signal obtained was defined as 100%.

CycB1 = tested on: CycB1
Experimental: as §1, §2, §3, §4

CycD2 = tested on: CycD2
Experimental: as §1, §2, §3, §4

CycD3 = tested on: CycD3
Experimental: as §1, §2, §3, §4

[1] = 0 hrs after aphidicolin removal
[2] = 2 hrs after aphidicolin removal
[3] = 4 hrs after aphidicolin removal
[4] = 6 hrs after aphidicolin removal
[5] = 8 hrs after aphidicolin removal
[6] = 10 hrs after aphidicolin removal
[7] = 12 hrs after aphidicolin removal
[8] = 14 hrs after aphidicolin removal
[9] = 16 hrs after aphidicolin removal
[10] = 18 hrs after aphidicolin removal
[11] = 20 hrs after aphidicolin removal
[12] = 22 hrs after aphidicolin removal
[13] = 24 hrs after aphidicolin removal
[14] = 26 hrs after aphidicolin removal
[15] = 28 hrs after aphidicolin removal
[16] = 30 hrs after aphidicolin removal

Which results are given for `C[C@@]1(CO)[C@H](O)CC[C@@]2(C)[C@H]1CC[C@H]1C[C@@H]3C[C@@]12CC[C@]3(O)CO` [aphidicolin]?
CDK-b2 % (CDK-b2; [1]): 7.78%; CDK-b2 Band intensity (CDK-b2; [1]): 1084; CDK-b2 % (CDK-b2; [2]): 12.90%; CDK-b2 Band intensity (CDK-b2; [2]): 1796; CDK-b2 % (CDK-b2; [3]): 8.22%; CDK-b2 Band intensity (CDK-b2; [3]): 1144; CDK-b2 % (CDK-b2; [4]): 12.09%; CDK-b2 Band intensity (CDK-b2; [4]): 1683; CDK-b2 % (CDK-b2; [5]): 28.47%; CDK-b2 Band intensity (CDK-b2; [5]): 3963; CDK-b2 % (CDK-b2; [6]): 49.90%; CDK-b2 Band intensity (CDK-b2; [6]): 6947; CDK-b2 % (CDK-b2; [7]): 87.45%; CDK-b2 Band intensity (CDK-b2; [7]): 12174; CDK-b2 % (CDK-b2; [8]): 100%; CDK-b2 Band intensity (CDK-b2; [8]): 13921; CDK-b2 % (CDK-b2; [9]): 55.84%; CDK-b2 Band intensity (CDK-b2; [9]): 7774; CDK-b2 % (CDK-b2; [10]): 67.57%; CDK-b2 Band intensity (CDK-b2; [10]): 9407; CDK-b2 % (CDK-b2; [11]): 47.80%; CDK-b2 Band intensity (CDK-b2; [11]): 6654; CDK-b2 % (CDK-b2; [12]): 22.78%; CDK-b2 Band intensity (CDK-b2; [12]): 3172; CDK-b2 % (CDK-b2; [13]): 13.73%; CDK-b2 Band intensity (CDK-b2; [13]): 1912; CDK-b2 % (CDK-b2; [14]): 22.86%; CDK-b2 Band intensity (CDK-b2; [14]): 3183; CDK-b2 % (CDK-b2; [15]): 18.55%; CDK-b2 Band intensity (CDK-b2; [15]): 2583; CDK-b2 % (CDK-b2; [16]): 22.19%; CDK-b2 Band intensity (CDK-b2; [16]): 3089; cycB1 % (CycB1; [1]): 33.18%; cycB1 Band intensity (CycB1; [1]): 636; cycB1 % (CycB1; [2]): 62.69%; cycB1 Band intensity (CycB1; [2]): 1201; cycB1 % (CycB1; [3]): 47.09%; cycB1 Band intensity (CycB1; [3]): 902; cycB1 % (CycB1; [4]): 59.67%; cycB1 Band intensity (CycB1; [4]): 1143; cycB1 % (CycB1; [5]): 69.42%; cycB1 Band intensity (CycB1; [5]): 1330; cycB1 % (CycB1; [6]): 83.86%; cycB1 Band intensity (CycB1; [6]): 1607; cycB1 % (CycB1; [7]): 89.57%; cycB1 Band intensity (CycB1; [7]): 1717; cycB1 % (CycB1; [8]): 100.0%; cycB1 Band intensity (CycB1; [8]): 1917; cycB1 % (CycB1; [9]): 76.51%; cycB1 Band intensity (CycB1; [9]): 1466; cycB1 % (CycB1; [10]): 90.81%; cycB1 Band intensity (CycB1; [10]): 1740; cycB1 % (CycB1; [11]): 77.04%; cycB1 Band intensity (CycB1; [11]): 1476; cycB1 % (CycB1; [12]): 45.09%; cycB1 Band intensity (CycB1; [12]): 864; cycB1 % (CycB1; [13]): 48.70%; cycB1 Band intensity (CycB1; [13]): 933; cycB1 % (CycB1; [14]): 49.18%; cycB1 Band intensity (CycB1; [14]): 942; cycB1 % (CycB1; [15]): 52.79%; cycB1 Band intensity (CycB1; [15]): 1012; CycD2 % (CycD2; [1]): 11.06%; CycD2 Band intensity (CycD2; [1]): 588; CycD2 % (CycD2; [2]): 18.49%; CycD2 Band intensity (CycD2; [2]): 984; CycD2 % (CycD2; [3]): 14.53%; CycD2 Band intensity (CycD2; [3]): 773; CycD2 % (CycD2; [4]): 20.73%; CycD2 Band intensity (CycD2; [4]): 1103; CycD2 % (CycD2; [5]): 21.64%; CycD2 Band intensity (CycD2; [5]): 1151; CycD2 % (CycD2; [6]): 32.02%; CycD2 Band intensity (CycD2; [6]): 1704; CycD2 % (CycD2; [7]): 51.04%; CycD2 Band intensity (CycD2; [7]): 2716; CycD2 % (CycD2; [8]): 77.14%; CycD2 Band intensity (CycD2; [8]): 4105; CycD2 % (CycD2; [9]): 66.51%; CycD2 Band intensity (CycD2; [9]): 3539; CycD2 % (CycD2; [10]): 100.0%; CycD2 Band intensity (CycD2; [10]): 5322; CycD2 % (CycD2; [11]): 83.89%; CycD2 Band intensity (CycD2; [11]): 4464; CycD2 % (CycD2; [12]): 46.62%; CycD2 Band intensity (CycD2; [12]): 2481; CycD2 % (CycD2; [13]): 64.44%; CycD2 Band intensity (CycD2; [13]): 3429; CycD2 % (CycD2; [14]): 68.56%; CycD2 Band intensity (CycD2; [14]): 3648; CycD2 % (CycD2; [15]): 69.98%; CycD2 Band intensity (CycD2; [15]): 3724; CycD2 % (CycD2; [16]): 62.66%; CycD2 Band intensity (CycD2; [16]): 3334; CycD3 % (CycD3; [1]): 12.10%; CycD3 Band intensity (CycD3; [1]): 465; CycD3 % (CycD3; [2]): 14.46%; CycD3 Band intensity (CycD3; [2]): 555; CycD3 % (CycD3; [3]): 43.55%; CycD3 Band intensity (CycD3; [3]): 1674; CycD3 % (CycD3; [4]): 76.31%; CycD3 Band intensity (CycD3; [4]): 2933; CycD3 % (CycD3; [5]): 72.80%; CycD3 Band intensity (CycD3; [5]): 2798; CycD3 % (CycD3; [6]): 77.13%; CycD3 Band intensity (CycD3; [6]): 2964; CycD3 % (CycD3; [7]): 85.55%; CycD3 Band intensity (CycD3; [7]): 3288; CycD3 % (CycD3; [8]): 100.0%; CycD3 Band intensity (CycD3; [8]): 3844; CycD3 % (CycD3; [9]): 79.41%; CycD3 Band intensity (CycD3; [9]): 3052; CycD3 % (CycD3; [10]): 79.09%; CycD3 Band intensity (CycD3; [10]): 3040; CycD3 % (CycD3; [11]): 94.06%; CycD3 Band intensity (CycD3; [11]): 3615; CycD3 % (CycD3; [12]): 59.40%; CycD3 Band intensity (CycD3; [12]): 2283; CycD3 % (CycD3; [13]): 26.53%; CycD3 Band intensity (CycD3; [13]): 1019; CycD3 % (CycD3; [14]): 51.71%; CycD3 Band intensity (CycD3; [14]): 1987; CycD3 % (CycD3; [15]): 64.80%; CycD3 Band intensity (CycD3; [15]): 2490; CycD3 % (CycD3; [16]): 70.93%; CycD3 Band intensity (CycD3; [16]): 2726

Source: patent publication US20040014215A1, “Synchronised arabidopsis cell suspensions and uses thereof” (priority 2000, published 2004)
